Counter-ions that a name gives are not always drawn. Active and inactive are the calls of the source. The rule behind the calls is not given here.
How the values were obtained:
Format in all cases: cell-based
Mus musculus [1] = species on record: Mus musculus; assay: Inhibition of alkaline phosphatase in mouse 180/TG cells assessed as p-nitrophenyl phosphate hydrolysis up to 5 mM by spectrophotometry
Mus musculus [2] = species on record: Mus musculus; assay: Inhibition of alkaline phosphatase in mouse 180/TG cells assessed as p-nitrophenyl phosphate hydrolysis up to 1 mM by spectrophotometry
[3] = Inhibition of alkaline phosphatase in mouse 180/TG cells assessed as p-nitrophenyl phosphate hydrolysis by spectrophotometry; details: read-out: I50

SMILES | inhibition (Mus musculus [1]) [%] | inhibition (Mus musculus [2]) | IC50 [3] [µM]
c1ccc(C2CN3CCNC3=N2)cc1 (stereo not given) | 15 | inactive | –
c1ccc(-c2cn3c(n2)OCC3)cc1 | – | inactive | –
c1ccc(C2CN3CCOC3=N2)cc1 (stereo not given) | – | – | 210
c1ccc(C2CN3CCSC3=N2)cc1 (stereo not given) [TETRAMISOLE HYDROCHLORIDE] | – | – | 45

From ChEMBL document CHEMBL3244162, “Synthesis and biological evaluation of tetramisole analogues as inhibitors of alkaline phosphatase of the 6-thiopurine-resistant tumor sarcoma 180/TG” (J Med Chem, 1979)
